Measurements as given in PubChem BioAssay (NCI).
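Exposure lasted 48 hours, with cells grown in 96-well plates and compounds tested at five concentrations. GI50 = concentration required for 50% inhibition of growth. At the TGI there is no net growth.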

Experiments:
Assay in all cases: DTP human tumour cell line panel, 48 h
MOLT-4 leukemia = test system: MOLT-4 leukemia
NCI/ADR-RES ovarian = test system: NCI/ADR-RES ovarian
HOP-62 NSCLC = test system: HOP-62 NSCLC
PC-3 prostate = test system: PC-3 prostate
MDA-MB-231 breast = test system: MDA-MB-231 breast
LOX IMVI melanoma = test system: LOX IMVI melanoma
BT-549 breast = test system: BT-549 breast
CCRF-CEM leukemia = test system: CCRF-CEM leukemia
MALME-3M melanoma = test system: MALME-3M melanoma
MDA-MB-435 = test system: MDA-MB-435

Row | SMILES | GI50 (MOLT-4 leukemia) | TGI (MOLT-4 leukemia) | GI50 (NCI/ADR-RES ovarian) | TGI (NCI/ADR-RES ovarian) | GI50 (HOP-62 NSCLC) | TGI (HOP-62 NSCLC) | GI50 (PC-3 prostate) | TGI (PC-3 prostate) | GI50 (MDA-MB-231 breast) | TGI (MDA-MB-231 breast) | GI50 (LOX IMVI melanoma) | TGI (LOX IMVI melanoma) | GI50 (BT-549 breast) | TGI (BT-549 breast) | GI50 (CCRF-CEM leukemia) | TGI (CCRF-CEM leukemia) | GI50 (MALME-3M melanoma) | TGI (MALME-3M melanoma) | GI50 (MDA-MB-435) | TGI (MDA-MB-435)
1 | O=c1oc2ccc(-c3ccc(F)cc3F)cc2c(=O)n1-c1ccc(Cl)c(C(F)(F)F)c1 | 2.33 µM | 5.45 µM | 2.49 µM | 8.89 µM | 1.93 µM | 4.09 µM | 2.95 µM | 35.8 µM | 2.25 µM | 6.93 µM | 2.18 µM | 4.91 µM | 2.06 µM | 5.17 µM | 2.63 µM | 8.75 µM | 2.19 µM | 5.73 µM | 3.07 µM | 9.83 µM
2 | O=C(C[P+](c1ccccc1)(c1ccccc1)c1ccccc1)C[P+](c1ccccc1)(c1ccccc1)c1ccccc1 | 0.292 µM | 4.08 µM | 0.383 µM | 11 µM | 1.46 µM | 2.84 µM | 0.938 µM | 2.51 µM | 0.32 µM | 1.4 µM | 0.235 µM | 0.637 µM | 0.363 µM | 1.24 µM | 0.229 µM | 1.05 µM | 0.335 µM | 1.48 µM | 0.233 µM | 0.666 µM
3 | Cn1c(=S)c2[nH]c(SCCN3C(=O)c4ccccc4C3=O)nc2n(C)c1=O | – | > 100 µM | – | > 100 µM | – | > 100 µM | – | > 100 µM | – | > 100 µM | – | > 100 µM | – | > 100 µM | – | > 100 µM | – | > 100 µM | – | > 100 µM
4 | NC(=S)N=Nc1c(O)c2ccccc2c2ccccc12 | 33.7 µM | > 73.5 µM | 4.3 µM | 27 µM | 2.31 µM | 7.87 µM | 9.05 µM | 66.6 µM | 16.1 µM | 60.2 µM | 2.81 µM | 11.1 µM | 1.97 µM | 4.95 µM | 28.6 µM | > 71.6 µM | 1.96 µM | 3.58 µM | 1.85 µM | 3.45 µM
5 | CC(=O)c1cc(C(=O)c2ccc3c(c2)Sc2ccccc2N3)c2c(C)cccn12 | 0.556 µM | > 100 µM | 0.184 µM | 18 µM | 0.25 µM | 36.9 µM | 0.321 µM | > 100 µM | 0.488 µM | 10.6 µM | 0.595 µM | 4.61 µM | 0.777 µM | 23.8 µM | 0.332 µM | > 100 µM | 13.6 µM | > 100 µM | 0.0464 µM | 0.275 µM
6 | Nc1ccccc1C#C/C=C\C#Cc1c(F)c(F)c(F)c(F)c1F | 1.76 µM | 34.8 µM | 19.5 µM | 41.2 µM | 12.7 µM | 27.8 µM | 16.6 µM | 43.3 µM | 2.76 µM | 16.7 µM | 2.68 µM | 14.6 µM | 10.3 µM | 28.6 µM | 0.385 µM | 14.2 µM | 18.6 µM | 40.1 µM | 14.9 µM | 31.7 µM
7 | CCOC(=O)/C=C/C(=O)[C@H](CC(C)C)NC(=O)[C@H](Cc1ccccc1)NC(=O)OCc1ccccc1 | 2.42 µM | 9.25 µM | 12.3 µM | 93.1 µM | 14.4 µM | 29.6 µM | 4.39 µM | 16.4 µM | 2.92 µM | 6.35 µM | 1.76 µM | 3.39 µM | 14.4 µM | 27.6 µM | 2.58 µM | 18.8 µM | 3.89 µM | 15.3 µM | 6.58 µM | 20.1 µM
8 | COc1ccc(C2C=C(c3ccc(Cl)cc3)N=C3SC=C(C)N32)c(Br)c1 (centres undefined) | 4.12 µM | > 100 µM | 4.22 µM | > 100 µM | 3.96 µM | 13.4 µM | 4.67 µM | 43.3 µM | 4.72 µM | 22.1 µM | 2.21 µM | 7.56 µM | 3.22 µM | 12.4 µM | 2.37 µM | 11.8 µM | 8.31 µM | 22.8 µM | 3.02 µM | 14.9 µM
9 | O=C(Nc1ccccc1O)c1ccc(NS(=O)(=O)c2cccc3cccnc23)cc1 | 1.21 µM | > 25 µM | 0.788 µM | 5.96 µM | 0.855 µM | 7.33 µM | 1.46 µM | 8.25 µM | 2.17 µM | 7.72 µM | 1.23 µM | 4.8 µM | 2.79 µM | 7.94 µM | 1.05 µM | > 25 µM | 0.827 µM | > 25 µM | 0.806 µM | 4.86 µM
10 | CN1CCN(Cc2ccc3c(NNC(=O)c4ccccc4)nc4cc(F)ccc4n23)CC1 | 0.291 µM | 20.2 µM | 0.22 µM | – | 0.27 µM | > 100 µM | 0.466 µM | > 66.7 µM | 0.5 µM | 19.2 µM | 0.277 µM | 12.6 µM | 0.87 µM | 57.9 µM | 0.225 µM | > 100 µM | 0.584 µM | 12.7 µM | 0.599 µM | > 66 µM
11 | Cc1c(C(N)=O)sc2c1c(=O)n(Cc1ccccc1)c1nnc(-c3ccc(Br)cc3)n21 | 1.64 µM | 17.3 µM | 2.28 µM | 11.2 µM | 1.38 µM | 14.4 µM | 4.06 µM | 22.3 µM | 0.829 µM | 18.6 µM | 1.27 µM | 10.2 µM | 3.85 µM | 18.9 µM | 0.805 µM | 22.8 µM | 2.94 µM | 13.7 µM | 3.49 µM | 20.7 µM
12 | COc1ccc(C(CC(=O)c2ccccc2)C(C(=O)c2ccccc2)C(c2ccc(OC)cc2)C2C(=O)NC(=S)NC2=O)cc1 (centres undefined) | 11.4 µM | > 100 µM | 10.7 µM | 34.1 µM | 21.1 µM | > 100 µM | 5.61 µM | > 100 µM | 2.16 µM | 10.6 µM | 8.18 µM | 20.6 µM | 12.8 µM | 49.8 µM | 11.8 µM | > 100 µM | 19.8 µM | 58.4 µM | 10.6 µM | 35.3 µM
